# Test results as given in ChEMBL document CHEMBL1201862, “PubChem BioAssay data set” (2004).
# Calls of active or inactive are those of the source.
# Assays:
# [1] = RKO cell viability reduction, dose response, CellTiter-Glo luminescence (AID 1117322); assay type: functional
# [2] = cytotoxicity toward HCT116 cells – cell-based, CellTiter-Glo luminescence, IC50, dose response (AID 1117332); assay type: functional; details: HCT-116
# [3] = SNU-C1 cell viability reduction, dose response, CellTiter-Glo luminescence (AID 1117323); assay type: functional, cell-based
# [4] = glucagon-like peptide-1 release potency in STC-1, concentration-response, half-maximal inhibitory concentration in the STC-1 line (AID 1117345); assay type: functional, cell-based
# [5] = cytotoxicity toward Colo320 cells – cell-based, CellTiter-Glo luminescence, IC50, dose response (AID 1117334); assay type: functional; details: COLO 320
# [6] = cytotoxicity toward HT-29 cells – cell-based, CellTiter-Glo luminescence, IC50, dose response (AID 1117330); assay type: functional
# [7] = Reduced DLD-1 viability, concentration-response, CellTiter-Glo luminescence (AID 1117352); assay type: functional
# [8] = Potency on glucagon-like peptide 1 release, dose-response in NCI-H716 cell line, half maximal inhibitory concentration (AID 1117344); assay type: functional, cell-based
# [9] = A549 cell cytotoxicity, dose response, cytotoxicity control, plate reader, cherry-pick, antagonist series (AID 743412); assay type: functional, cell-based
# [10] = toxicity toward HepG2 liver cells – cell-based, plate reader, cherry-pick, antagonist series, cytotoxicity control, dose response (AID 743416); assay type: functional
# [11] = blockers of bursicon-stimulated LGR2 cAMP reporter – cell-based, HEK293, CRE-luciferase reporter, cherry pick, set 2, dose response (AID 743343); assay type: functional;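 note: transfected cells were stimulated with diluted bursicon conditioned medium after compound addition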
# [12] = Dd2 parasite growth inhibition in erythrocytes – SYBR Green, dry powder samples, set 9, dose response (AID 1159568); assay type: functional, cell-based
# [13] = molecular target: Mitogen-activated protein kinase 10 (Homo sapiens, UniProt P53779); experiment: Dose response biochemical screening assay for inhibitors of c-Jun N-Terminal Kinase 3 (JNK3). [Related pubchem assays: 746 ]
# Chain of Mitogen-activated protein kinase 10 (P53779 whole entry): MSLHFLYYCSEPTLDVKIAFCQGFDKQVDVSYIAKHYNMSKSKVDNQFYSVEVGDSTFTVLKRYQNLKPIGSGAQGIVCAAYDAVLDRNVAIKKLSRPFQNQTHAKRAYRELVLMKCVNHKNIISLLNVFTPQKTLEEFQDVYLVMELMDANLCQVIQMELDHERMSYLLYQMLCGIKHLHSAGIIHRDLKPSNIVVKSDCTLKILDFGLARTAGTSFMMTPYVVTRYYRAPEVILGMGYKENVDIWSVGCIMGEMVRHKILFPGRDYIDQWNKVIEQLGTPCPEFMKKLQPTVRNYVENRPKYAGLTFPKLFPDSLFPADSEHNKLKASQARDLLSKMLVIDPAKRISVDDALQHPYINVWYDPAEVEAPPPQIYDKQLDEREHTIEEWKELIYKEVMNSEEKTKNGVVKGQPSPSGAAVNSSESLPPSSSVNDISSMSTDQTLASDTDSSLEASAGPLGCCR
# [14] = molecular target: Luciferin 4-monooxygenase (Photinus pyralis, UniProt P08659); experiment: inhibition of purified Photinus pyralis luciferase – biochemical, luminescence, dose response (AID 1891)
# Chain of Luciferin 4-monooxygenase (P08659 whole entry): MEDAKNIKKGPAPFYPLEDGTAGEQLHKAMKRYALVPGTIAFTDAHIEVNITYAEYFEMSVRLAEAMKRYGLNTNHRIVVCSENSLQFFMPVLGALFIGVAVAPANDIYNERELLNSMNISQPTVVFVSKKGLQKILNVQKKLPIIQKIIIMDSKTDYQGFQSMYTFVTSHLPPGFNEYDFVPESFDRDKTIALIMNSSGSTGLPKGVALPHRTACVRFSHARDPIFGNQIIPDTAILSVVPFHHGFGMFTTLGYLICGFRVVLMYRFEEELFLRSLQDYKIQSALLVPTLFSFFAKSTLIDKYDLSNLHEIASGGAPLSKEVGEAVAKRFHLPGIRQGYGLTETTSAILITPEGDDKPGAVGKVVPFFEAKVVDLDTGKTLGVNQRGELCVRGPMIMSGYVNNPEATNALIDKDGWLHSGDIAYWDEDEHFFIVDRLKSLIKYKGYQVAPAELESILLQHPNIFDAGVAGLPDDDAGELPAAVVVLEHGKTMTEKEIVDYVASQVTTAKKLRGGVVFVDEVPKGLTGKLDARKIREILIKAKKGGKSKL
# [15] = Luminescence Cell-Based Dose Confirmation HTS to Identify Inhibitors of Platelet Dense Granule Release. [Related pubchem assays: 1663 (Primary HTS), 1678 (Summary of Project)]; assay type: functional
# [16] = molecular target: T1, Microphthalmia-associated transcription factor (Homo sapiens, UniProt O75030); experiment: reducers of TRPM1 reporter luminescence, concentration series – cell-based, SK-MEL-5, cherry-picked, set 3, MITF inhibitor project, dose response (AID 493073); assay type: functional;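 note: SK-MEL-5 melanoma cells with luciferase driven by the MITF target TRPM1 promoter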
# T1 sequence (O75030 whole entry): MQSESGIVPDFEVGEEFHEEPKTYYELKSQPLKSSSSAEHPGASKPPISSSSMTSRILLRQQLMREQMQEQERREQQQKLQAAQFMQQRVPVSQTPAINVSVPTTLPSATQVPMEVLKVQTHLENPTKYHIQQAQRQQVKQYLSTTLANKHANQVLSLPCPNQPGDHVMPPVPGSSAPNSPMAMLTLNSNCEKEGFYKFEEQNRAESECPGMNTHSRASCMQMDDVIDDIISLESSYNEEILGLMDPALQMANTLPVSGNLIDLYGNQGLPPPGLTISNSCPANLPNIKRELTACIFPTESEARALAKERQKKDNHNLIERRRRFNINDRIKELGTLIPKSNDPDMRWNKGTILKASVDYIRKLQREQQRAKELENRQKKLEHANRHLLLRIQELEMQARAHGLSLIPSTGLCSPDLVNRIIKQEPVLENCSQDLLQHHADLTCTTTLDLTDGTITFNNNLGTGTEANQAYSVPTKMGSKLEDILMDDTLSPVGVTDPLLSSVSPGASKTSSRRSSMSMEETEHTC
# [17] = blockade of melanocortin 4 receptor signaling – cell-based, plate reader, cherry pick, counter-screen for LGR2 antagonist project, dose response (AID 743444); assay type: functional;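 note: transfected HEK 293 cells stimulated with alpha-MSH peptide; potency of inhibitors of the alpha-MSH evoked signal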
# [18] = viability loss in HEK293 cells – cell-based, plate reader, cherry-picked samples, cytotoxicity control, dose response (AID 743446); assay type: functional
# [19] = growth inhibition of yeast DHODH-expressing 3D7 parasites – SYBR Green, dry powder samples, dose response (AID 1159570); assay type: functional, cell-based;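 note: parasite growth measured after 72 hours of compound exposure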
# [20] = toxicity to human HepG2 hepatoma cells – cell-based, plate reader, dry powder samples, cytotoxicity control, dose response (AID 1159569); assay type: functional;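 note: inhibitor potency with signal falling toward the positive control level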
# [21] = P. falciparum Dd2 growth inhibitors, dose response, SYBR Green, cherry-picked samples (AID 1159567); assay type: functional, cell-based
# [22] = Dd2 malaria parasite growth inhibition potency – SYBR Green, dry powder samples, dose response (AID 1159566); assay type: functional, cell-based;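 note: potency for growth inhibition with lower SYBR green DNA signal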
# [23] = growth inhibition of PfATP4-mutant resistant parasites – NITD609-resistant line, SYBR Green, dry powder, dose response (AID 1159571); assay type: functional, cell-based;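 note: parasites synchronized at ring stage by sorbitol before testing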
# [24] = CellTiter-Glo luminescence survival assay, SW480 colon tumor line, concentration-response curve, half-maximal inhibitory concentration (AID 1117338); assay type: functional
# [25] = HCT116 cell viability decrease, GSK3B pretreatment – CellTiter-Glo, IC50, dose response (AID 1117339); assay type: functional; details: HCT-116
# [26] = toxicity to human hepatoma HepG2 cells – cell-based, cherry-picked samples, cytotoxicity control, dose response (AID 1159577); assay type: functional
# [27] = molecular target: T2, Caspase-6 (Homo sapiens, UniProt P55212); experiment: inhibition of CASP6 peptide cleavage – biochemical, VEID-R110 fluorescence, cherry-pick, dose response (AID 720632)
# T2 sequence (P55212 whole entry): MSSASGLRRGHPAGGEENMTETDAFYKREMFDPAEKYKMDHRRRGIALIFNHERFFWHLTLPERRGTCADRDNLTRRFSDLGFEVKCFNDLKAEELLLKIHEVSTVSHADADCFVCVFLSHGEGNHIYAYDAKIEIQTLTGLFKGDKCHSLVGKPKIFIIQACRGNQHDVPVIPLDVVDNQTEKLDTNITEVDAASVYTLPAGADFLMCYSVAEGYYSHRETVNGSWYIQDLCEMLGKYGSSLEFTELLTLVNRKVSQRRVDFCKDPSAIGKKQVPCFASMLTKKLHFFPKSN
# [28] = molecular target: T3, Histone-lysine N-methyltransferase NSD2 (Homo sapiens, UniProt O96028); assay type: biochemical
# T3 sequence (O96028 whole entry): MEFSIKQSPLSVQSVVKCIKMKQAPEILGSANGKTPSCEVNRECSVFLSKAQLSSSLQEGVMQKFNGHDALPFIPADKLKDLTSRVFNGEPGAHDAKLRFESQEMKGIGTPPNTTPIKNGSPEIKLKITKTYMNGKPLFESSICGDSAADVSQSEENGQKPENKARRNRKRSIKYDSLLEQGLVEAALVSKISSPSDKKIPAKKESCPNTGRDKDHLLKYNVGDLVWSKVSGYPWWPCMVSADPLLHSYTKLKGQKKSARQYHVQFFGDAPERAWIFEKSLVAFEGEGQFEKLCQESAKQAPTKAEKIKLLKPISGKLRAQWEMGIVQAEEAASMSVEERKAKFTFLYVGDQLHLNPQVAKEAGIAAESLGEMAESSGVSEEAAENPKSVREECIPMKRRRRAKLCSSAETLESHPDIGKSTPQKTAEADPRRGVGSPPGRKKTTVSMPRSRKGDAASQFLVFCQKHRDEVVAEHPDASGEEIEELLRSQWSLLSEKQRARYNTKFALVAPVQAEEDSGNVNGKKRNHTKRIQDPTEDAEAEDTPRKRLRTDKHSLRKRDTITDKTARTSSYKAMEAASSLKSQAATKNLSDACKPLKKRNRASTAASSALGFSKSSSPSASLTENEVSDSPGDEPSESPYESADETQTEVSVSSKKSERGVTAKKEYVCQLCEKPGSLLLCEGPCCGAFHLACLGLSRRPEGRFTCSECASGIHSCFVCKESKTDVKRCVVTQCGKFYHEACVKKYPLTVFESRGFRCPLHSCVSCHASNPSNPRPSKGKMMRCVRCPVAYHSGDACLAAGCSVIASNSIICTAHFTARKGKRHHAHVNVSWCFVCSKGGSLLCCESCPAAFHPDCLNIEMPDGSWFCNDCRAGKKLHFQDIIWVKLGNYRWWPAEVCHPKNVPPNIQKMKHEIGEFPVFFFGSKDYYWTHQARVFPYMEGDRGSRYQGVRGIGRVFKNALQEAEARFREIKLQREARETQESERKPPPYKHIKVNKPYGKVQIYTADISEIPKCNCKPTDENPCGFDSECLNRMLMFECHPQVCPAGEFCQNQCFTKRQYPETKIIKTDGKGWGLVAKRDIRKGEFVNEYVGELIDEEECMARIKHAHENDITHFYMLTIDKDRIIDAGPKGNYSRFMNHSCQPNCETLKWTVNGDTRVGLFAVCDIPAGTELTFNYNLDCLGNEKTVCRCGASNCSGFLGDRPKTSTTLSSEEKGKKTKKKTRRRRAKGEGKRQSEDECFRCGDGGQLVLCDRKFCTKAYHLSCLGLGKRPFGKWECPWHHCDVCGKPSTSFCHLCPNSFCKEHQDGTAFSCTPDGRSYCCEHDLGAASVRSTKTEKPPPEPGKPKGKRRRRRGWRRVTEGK
# [29] = molecular target: T4, Tyrosyl-DNA phosphodiesterase 2 (Homo sapiens, UniProt O95551); experiment: potency against TDP2 phosphodiesterase activity – biochemical, epi absorbance, IC50, dose response (AID 743297)
# T4 sequence (O95551 whole entry): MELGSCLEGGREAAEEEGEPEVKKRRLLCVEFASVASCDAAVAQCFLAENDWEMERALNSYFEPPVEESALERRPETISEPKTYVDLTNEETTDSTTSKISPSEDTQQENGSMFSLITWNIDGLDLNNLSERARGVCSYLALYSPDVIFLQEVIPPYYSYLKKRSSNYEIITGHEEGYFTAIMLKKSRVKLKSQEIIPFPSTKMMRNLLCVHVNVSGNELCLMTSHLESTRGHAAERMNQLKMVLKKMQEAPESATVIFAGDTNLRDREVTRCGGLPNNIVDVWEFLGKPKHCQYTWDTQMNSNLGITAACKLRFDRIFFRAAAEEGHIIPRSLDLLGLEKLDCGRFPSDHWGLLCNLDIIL
smiles,measurement,setting,value
OC1(c2ccc(Cl)c(C(F)(F)F)c2)CCN(CCCC(c2ccc(F)cc2)c2ccc(F)cc2)CC1 [PENFLURIDOL],IC50,[1],0.971 µM (active)
same,IC50,[2],1.85 µM (active)
same,IC50,[3],0.168 µM (active)
same,IC50,[4],> 40 µM (inactive)
same,IC50,[5],0.962 µM (active)
same,IC50,[6],0.946 µM (active)
same,IC50,[7],1.14 µM (active)
same,IC50,[8],8.45 µM (inactive)
O=C(C[C@@H]1C[C@H]2c3cc(NC(=O)c4ccc5c(c4)OCO5)ccc3O[C@H]2[C@@H](CO)O1)NCc1ccc(Oc2ccccc2)cc1,AC50,[9],35.3 µM (active)
same,AC50,[10],20.5 µM (active)
same,AC50,[11],32.7 µM (active)
same,AC50,[12],> 39 µM (inactive)
N#CCCC12CCCCC1=Nc1ccccc12 (stereo not given),IC50,[13],> 93.1 µM (not active)
COc1cc(SC)ccc1C(=O)Nc1ncc(C)s1,EC50,[14],8.16 µM (active)
same,EC50,[15],11.6 µM (active)
same,AC50,[16],3.65 µM (active)
same,AC50,[11],1 µM (active)
same,AC50,[17],1.01 µM (active)
same,AC50,[18],> 52 µM (inactive)
C[C@@H]1CN([C@@H](C)CO)C(=O)c2ccccc2-c2ccccc2CO[C@H]1CN(C)C(=O)Nc1cccc(Cl)c1Cl,AC50,[19],0.0978 µM (active)
same,AC50,[20],> 100 µM (inactive)
same,AC50,[21],0.418 µM (active)
same,AC50,[22],0.107 µM (active)
same,AC50,[23],0.437 µM (active)
Clc1ccc(C(Cn2ccnc2)OCc2ccc(Sc3ccccc3)cc2)c(Cl)c1 (stereo not given) [FENTICONAZOLE],IC50,[24],7.44 µM (inactive)
same,IC50,[1],6.14 µM (inactive)
same,IC50,[2],7.71 µM (inactive)
same,IC50,[5],7.06 µM (inactive)
same,IC50,[6],> 20 µM (inactive)
same,IC50,[7],7.76 µM (inactive)
same,IC50,[25],6.77 µM (inactive)
C[C@@H]1CN([C@H](C)CO)S(=O)(=O)c2ccc(C#Cc3ccncc3)cc2O[C@H]1CN(C)S(=O)(=O)c1ccc(F)cc1,AC50,[19],0.682 µM (active)
same,AC50,[20],3.66 µM (active)
same,AC50,[21],2.17 µM (active)
same,AC50,[22],1.14 µM (active)
same,AC50,[26],> 39 µM (inactive)
same,AC50,[23],1.17 µM (active)
Cc1cnc(C2OCCO2)c2cccc(N)c12,AC50,[27],26.2 µM (active)
same,AC50,[28],18.5 µM (active)
same,IC50,[29],> 129 µM (inactive)
